Reference: PubChem BioAssay AID212 (DTP/NCI, 2004)
Where “and” joins values, the source holds several entries; their conditions need not be identical. Equal entries are not always repeated. Records with an inconclusive call do not appear.

Test system: BDF1 mice, colon carcinoma 38 sc, T/C %
Test: NCI In Vivo Anticancer Drug Screen. Data for tumor model Colon Carcinoma 38 (subcutaneous) in B6D2F1 (BDF1) mice
Procedure, shortened: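 Compound antitumor activity was assessed in mice carrying transplantable tumors. Survival or tumor size was recorded, and each value is the treated-group measurement divided by that of the vehicle-treated control group.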

[1] = endpoint: median tumor weight (est.), dose: 6.25 mg/kg/injection, schedule: Q07DX002 (ip), vehicle: saline, higher = larger tumour
[2] = endpoint: median tumor weight (est.), dose: 25.0 mg/kg/injection, schedule: Q07DX002 (ip), vehicle: saline, higher = larger tumour
[3] = endpoint: median tumor weight (est.), dose: 50.0 mg/kg/injection, schedule: Q07DX002 (ip), vehicle: saline, higher = larger tumour
[4] = endpoint: median tumor weight (est.), dose: 200.0 mg/kg/injection, schedule: Q07DX002 (ip), vehicle: saline, higher = larger tumour
[5] = endpoint: median tumor weight (est.), dose: 100.0 mg/kg/injection, schedule: Q07DX002 (ip), vehicle: saline, higher = larger tumour

**Q.** Which results are given for `COc1cccc2c1C(=O)c1c(O)c3c(c(O)c1C2=O)C[C@@](O)(C(=O)CO)C[C@@H]3OC1CC(N)CC(C)O1` (stereo partly drawn)?
**A.** T/C (endpoint: median tumor weight (est.), dose: 0.75 mg/kg/injection, schedule: Q07DX002 (ip), vehicle: water, higher = larger tumour): 93 % of control; T/C (endpoint: median tumor weight (est.), dose: 1.5 mg/kg/injection, schedule: Q07DX002 (ip), vehicle: water, higher = larger tumour): 110 % of control; T/C (endpoint: median tumor weight (est.), dose: 3.0 mg/kg/injection, schedule: Q07DX002 (ip), vehicle: water, higher = larger tumour): 25 % of control

**Q.** What does the source list for `CCCCCC#CC1OC12CCCCC2` (stereo not drawn)?
**A.** T/C [1]: 17 % of control; T/C (endpoint: median tumor weight (est.), dose: 12.5 mg/kg/injection, schedule: Q07DX002 (ip), vehicle: saline with Tween-80, higher = larger tumour): 88 % of control; T/C (endpoint: median tumor weight (est.), dose: 25.0 mg/kg/injection, schedule: Q07DX002 (ip), vehicle: saline with Tween-80, higher = larger tumour): 122 % of control; T/C [2]: 64 % of control and 66 % of control; T/C (endpoint: median tumor weight (est.), dose: 50.0 mg/kg/injection, schedule: Q07DX002 (ip), vehicle: saline with Tween-80, higher = larger tumour): 91 % of control; T/C [3]: 24 % of control; T/C (endpoint: median tumor weight (est.), dose: 100.0 mg/kg/injection, schedule: Q07DX002 (ip), vehicle: saline with Tween-80, higher = larger tumour): 169 % of control; T/C (endpoint: median tumor weight (est.), dose: 200.0 mg/kg/injection, schedule: Q07DX002 (ip), vehicle: saline with Tween-80, higher = larger tumour): 103 % of control; T/C [4]: 38 % of control and 41 % of control

**Q.** What does the source list for `Cc1cc2c(c3oc(C4(C)OC4C4OC4C)cc(=O)c13)C(=O)c1c(O)c(C3CC(C)(N(C)C)C(O)C(C)O3)cc(C3CC(N(C)C)C(O)C(C)O3)c1C2=O` (stereo not drawn)?
**A.** T/C (endpoint: median tumor weight (est.), dose: 3.75 micrograms/kg/injection, schedule: Q07DX002 (ip), vehicle: Klucel (hydroxypropylcellulose) (HPC), higher = larger tumour): 62 % of control; T/C (endpoint: median tumor weight (est.), dose: 7.5 micrograms/kg/injection, schedule: Q07DX002 (ip), vehicle: Klucel (hydroxypropylcellulose) (HPC), higher = larger tumour): 90 % of control; T/C (endpoint: median tumor weight (est.), dose: 15.0 micrograms/kg/injection, schedule: Q07DX002 (ip), vehicle: Klucel (hydroxypropylcellulose) (HPC), higher = larger tumour): 99 % of control; T/C (endpoint: median tumor weight (est.), dose: 30.0 micrograms/kg/injection, schedule: Q07DX002 (ip), vehicle: Klucel (hydroxypropylcellulose) (HPC), higher = larger tumour): 57 % of control

**Q.** What does the source list for `N[C@H](C(=O)O)[C@@H]1CC(Cl)=NO1`?
**A.** T/C (endpoint: median survival time, dose: 25.9 mg/kg/injection, schedule: Q04DX002 (ip), vehicle: suspension in saline, higher = longer survival): 113 % of control; T/C (endpoint: median survival time, dose: 43.2 mg/kg/injection, schedule: Q04DX002 (ip), vehicle: suspension in saline, higher = longer survival): 122 % of control; T/C (endpoint: median survival time, dose: 72.0 mg/kg/injection, schedule: Q04DX002 (ip), vehicle: suspension in saline, higher = longer survival): 114 % of control; T/C (endpoint: median survival time, dose: 200.0 mg/kg/injection, schedule: Q04DX002 (ip), vehicle: suspension in saline, higher = longer survival): 119 % of control; T/C (endpoint: median tumor weight (est.), dose: 1.0 mg/kg/injection, schedule: Q07DX003 (ip), vehicle: saline, higher = larger tumour): 114 % of control; T/C (endpoint: median tumor weight (est.), dose: 2.0 mg/kg/injection, schedule: Q07DX003 (ip), vehicle: saline, higher = larger tumour): 71 % of control and 79 % of control; T/C (endpoint: median tumor weight (est.), dose: 4.0 mg/kg/injection, schedule: Q07DX003 (ip), vehicle: saline, higher = larger tumour): 86 % of control; T/C (endpoint: median tumor weight (est.), dose: 8.0 mg/kg/injection, schedule: Q07DX003 (ip), vehicle: saline, higher = larger tumour): 156 % of control; T/C (endpoint: median tumor weight (est.), dose: 16.0 mg/kg/injection, schedule: Q07DX003 (ip), vehicle: saline, higher = larger tumour): 69 % of control; T/C (endpoint: median tumor weight (est.), dose: 32.0 mg/kg/injection, schedule: Q07DX003 (ip), vehicle: saline, higher = larger tumour): 69 % of control; T/C (endpoint: median tumor weight (est.), dose: 64.0 mg/kg/injection, schedule: Q07DX003 (ip), vehicle: saline, higher = larger tumour): 78 % of control

**Q.** How did the T/C (endpoint: median tumor weight (est.), dose: 25.0 mg/kg/injection, schedule: Q07DX003 (ip), vehicle: Klucel (hydroxypropylcellulose) (HPC), higher = larger tumour) turn out when `CCCCC(C)(C(=O)OCC)C(=O)OCC` was run?
**A.** The T/C was 68 % of control and 69 % of control.

**Q.** What about the T/C (endpoint: median tumor weight (est.), dose: 200.0 mg/kg/injection, schedule: Q07DX003 (ip), vehicle: Klucel (hydroxypropylcellulose) (HPC), higher = larger tumour) of the same molecule?
**A.** The T/C was 63 % of control and 85 % of control.

**Q.** And the T/C (endpoint: median tumor weight (est.), dose: 400.0 mg/kg/injection, schedule: Q07DX003 (ip), vehicle: Klucel (hydroxypropylcellulose) (HPC), higher = larger tumour)?
**A.** Its T/C is 91 % of control and 102 % of control.

**Q.** What does the source list for `N#C[C@H](OC1OC(COC2OC(CO)C(O)C(O)C2O)C(O)C(O)C1O)c1ccccc1` (stereo partly drawn)?
**A.** T/C [3]: 76 % of control; T/C (endpoint: median tumor weight (est.), dose: 50.0 mg/kg/injection, schedule: Q07DX002 (ip), vehicle: water, higher = larger tumour): 70 % of control; T/C [5]: 103 % of control; T/C (endpoint: median tumor weight (est.), dose: 100.0 mg/kg/injection, schedule: Q07DX002 (ip), vehicle: water, higher = larger tumour): 70 % of control; T/C [4]: 62 % of control; T/C (endpoint: median tumor weight (est.), dose: 200.0 mg/kg/injection, schedule: Q07DX002 (ip), vehicle: water, higher = larger tumour): 85 % of control; T/C (endpoint: median tumor weight (est.), dose: 400.0 mg/kg/injection, schedule: Q07DX002 (ip), vehicle: saline, higher = larger tumour): 76 % of control; T/C (endpoint: median tumor weight (est.), dose: 400.0 mg/kg/injection, schedule: Q07DX002 (ip), vehicle: water, higher = larger tumour): 112 % of control; T/C (endpoint: median tumor weight (est.), dose: 800.0 mg/kg/injection, schedule: Q07DX002 (ip), vehicle: saline, higher = larger tumour): 87 % of control; T/C (endpoint: median tumor weight (est.), dose: 800.0 mg/kg/injection, schedule: Q07DX002 (ip), vehicle: water, higher = larger tumour): 83 % of control; T/C (endpoint: median tumor weight (est.), dose: 1600.0 mg/kg/injection, schedule: Q07DX002 (ip), vehicle: saline, higher = larger tumour): 98 % of control; T/C (endpoint: median tumor weight (est.), dose: 1600.0 mg/kg/injection, schedule: Q07DX002 (ip), vehicle: water, higher = larger tumour): 106 % of control

**Q.** `Brc1c(NC2=NCCN2)ccc2nccnc12` was tested. Which T/C (endpoint: median tumor weight (est.), dose: 3.12 mg/kg/injection, schedule: Q07DX002 (ip), vehicle: saline, higher = larger tumour) did it give?
**A.** The T/C was 87 % of control.

**Q.** And the T/C [1]?
**A.** The T/C was 98 % of control.

**Q.** And the T/C (endpoint: median tumor weight (est.), dose: 12.5 mg/kg/injection, schedule: Q07DX002 (ip), vehicle: saline, higher = larger tumour)?
**A.** Its T/C is 92 % of control.

**Q.** What about the T/C [2] of the same molecule?
**A.** Its T/C is 82 % of control.

**Q.** And the T/C [3]?
**A.** Its T/C is 72 % of control.

**Q.** What about the T/C [5] of the same molecule?
**A.** Its T/C is 75 % of control.
